# Data taken from ChEMBL document CHEMBL3745617 (J Med Chem, 2015).
# Activity calls are given as the source filed them. The rule behind the calls is not given here.
# Columns and labels:
# [1] = Clearance in Sprague-Dawley rat at 1 mg/kg, iv; type: ADME, organism-based; conditions: in vivo
# [2] = biological target: Receptor-type tyrosine-protein kinase FLT3 (Homo sapiens) (UniProt P36888); conditions: MOLM-13, 0.03 to 3 uM
# Receptor-type tyrosine-protein kinase FLT3 (Homo sapiens), sequence (P36888 whole entry): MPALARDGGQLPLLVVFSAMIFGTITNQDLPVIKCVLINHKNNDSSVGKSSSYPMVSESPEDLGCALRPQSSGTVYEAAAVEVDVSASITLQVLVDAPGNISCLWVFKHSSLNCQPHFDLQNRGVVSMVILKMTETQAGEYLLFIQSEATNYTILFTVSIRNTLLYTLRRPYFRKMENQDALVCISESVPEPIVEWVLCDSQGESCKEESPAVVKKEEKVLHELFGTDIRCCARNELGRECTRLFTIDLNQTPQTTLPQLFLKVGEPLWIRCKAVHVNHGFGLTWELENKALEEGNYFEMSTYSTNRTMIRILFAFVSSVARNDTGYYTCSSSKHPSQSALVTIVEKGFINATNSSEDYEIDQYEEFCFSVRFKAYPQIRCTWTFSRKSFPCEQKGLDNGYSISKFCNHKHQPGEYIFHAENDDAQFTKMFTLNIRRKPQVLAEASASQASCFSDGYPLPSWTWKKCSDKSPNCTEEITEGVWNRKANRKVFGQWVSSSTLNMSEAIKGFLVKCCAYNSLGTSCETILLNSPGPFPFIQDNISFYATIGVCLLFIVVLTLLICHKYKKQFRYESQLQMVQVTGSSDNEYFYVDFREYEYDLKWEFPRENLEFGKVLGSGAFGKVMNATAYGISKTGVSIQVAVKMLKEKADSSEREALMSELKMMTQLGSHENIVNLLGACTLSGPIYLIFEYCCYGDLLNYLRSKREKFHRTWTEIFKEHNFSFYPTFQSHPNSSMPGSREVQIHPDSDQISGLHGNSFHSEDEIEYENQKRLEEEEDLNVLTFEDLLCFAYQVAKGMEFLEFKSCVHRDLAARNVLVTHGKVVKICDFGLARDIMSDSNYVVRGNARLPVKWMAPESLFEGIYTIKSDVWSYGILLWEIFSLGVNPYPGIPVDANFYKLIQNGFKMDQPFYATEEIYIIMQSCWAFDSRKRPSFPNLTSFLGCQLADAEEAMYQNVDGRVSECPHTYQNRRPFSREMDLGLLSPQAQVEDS
# Description: Inhibition of FLT3 mediated Akt phosphorylation at Ser473 residue in human MOLM13 cells at 0.03 to 3 uM for 4 hrs by immunoblot analysis
compound,measurement,setting,value
CN(C)CC(=O)N1CCC[C@@H](n2nc(-c3ccc(Oc4ccccc4)cc3)c3c(N)ncnc32)C1,clearance,[1],26.9 mL/min/kg
same,inhibition,[2],Active
